Measured values published in PubChem BioAssay (NCI).
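Cultured in 96-well plates, cells were exposed to test compound for 48 hours across five concentrations. GI50 = concentration required for 50% inhibition of growth. TGI denotes the concentration required for complete inhibition of growth.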

What was measured:
Test in all cases: growth of human tumour cells (NCI), 48 h
MALME-3M melanoma = test system: MALME-3M melanoma
MDA-MB-231 breast = test system: MDA-MB-231 breast
MCF7 breast = test system: MCF7 breast
OVCAR-3 ovarian = test system: OVCAR-3 ovarian
HCC-2998 colon = test system: HCC-2998 colon
EKVX NSCLC = test system: EKVX NSCLC
NCI/ADR-RES ovarian = test system: NCI/ADR-RES ovarian
ACHN renal = test system: ACHN renal
SW-620 colon = test system: SW-620 colon
HCT-15 colon = test system: HCT-15 colon
RPMI-8226 leukemia = test system: RPMI-8226 leukemia
HOP-92 NSCLC = test system: HOP-92 NSCLC
SF-268 CNS = test system: SF-268 CNS
UACC-62 melanoma = test system: UACC-62 melanoma
NCI-H226 lung = test system: NCI-H226 lung
PC-3 prostate = test system: PC-3 prostate
OVCAR-8 ovarian = test system: OVCAR-8 ovarian
HT29 colon = test system: HT29 colon
OVCAR-5 ovarian = test system: OVCAR-5 ovarian
KM12 colon = test system: KM12 colon
T-47D breast = test system: T-47D breast
UACC-257 melanoma = test system: UACC-257 melanoma
SN12C renal = test system: SN12C renal
UO-31 renal = test system: UO-31 renal
HS 578T breast = test system: HS 578T breast
A498 renal = test system: A498 renal
IGROV1 ovarian = test system: IGROV1 ovarian
CAKI-1 renal = test system: CAKI-1 renal
MOLT-4 leukemia = test system: MOLT-4 leukemia
SF-539 CNS = test system: SF-539 CNS
LOX IMVI melanoma = test system: LOX IMVI melanoma
CCRF-CEM leukemia = test system: CCRF-CEM leukemia
BT-549 breast = test system: BT-549 breast
RXF 393 renal = test system: RXF 393 renal
NCI-H23 lung = test system: NCI-H23 lung
SK-OV-3 ovarian = test system: SK-OV-3 ovarian
SF-295 CNS = test system: SF-295 CNS
M14 melanoma = test system: M14 melanoma
COLO 205 colon = test system: COLO 205 colon
SK-MEL-28 melanoma = test system: SK-MEL-28 melanoma
HCT-116 colon = test system: HCT-116 colon
HOP-62 NSCLC = test system: HOP-62 NSCLC
SNB-19 CNS = test system: SNB-19 CNS
HL-60(TB) leukemia = test system: HL-60(TB) leukemia
786-0 renal = test system: 786-0 renal
NCI-H460 lung = test system: NCI-H460 lung
SK-MEL-2 melanoma = test system: SK-MEL-2 melanoma
K-562 leukemia = test system: K-562 leukemia
TK-10 renal = test system: TK-10 renal
OVCAR-4 ovarian = test system: OVCAR-4 ovarian
U251 CNS = test system: U251 CNS
SR leukemia = test system: SR leukemia
SK-MEL-5 melanoma = test system: SK-MEL-5 melanoma
MDA-MB-435 = test system: MDA-MB-435
SNB-75 CNS = test system: SNB-75 CNS
A549 NSCLC = test system: A549 NSCLC
DU-145 prostate = test system: DU-145 prostate
NCI-H522 lung = test system: NCI-H522 lung

C=CC(=O)N[C@H]1CCOC[C@H]1Nc1ncc2cc(-c3c(Cl)c(OC)cc(OC)c3Cl)ccc2n1
GI50 (MALME-3M melanoma): 13.1 µM
TGI (MALME-3M melanoma): 64 µM
GI50 (MDA-MB-231 breast): 17.7 µM
TGI (MDA-MB-231 breast): > 100 µM
GI50 (MCF7 breast): 5.65 µM
TGI (MCF7 breast): 51 µM
GI50 (OVCAR-3 ovarian): 20.3 µM
TGI (OVCAR-3 ovarian): > 100 µM
GI50 (HCC-2998 colon): 32.7 µM
TGI (HCC-2998 colon): > 100 µM
GI50 (EKVX NSCLC): 4.31 µM
TGI (EKVX NSCLC): 94.3 µM
GI50 (NCI/ADR-RES ovarian): 20.7 µM
TGI (NCI/ADR-RES ovarian): > 100 µM
GI50 (ACHN renal): 15.8 µM
TGI (ACHN renal): > 100 µM
GI50 (SW-620 colon): 27.5 µM
TGI (SW-620 colon): > 100 µM
GI50 (HCT-15 colon): 7.89 µM
TGI (HCT-15 colon): 84.4 µM
GI50 (RPMI-8226 leukemia): 9.04 µM
TGI (RPMI-8226 leukemia): 61.5 µM
GI50 (HOP-92 NSCLC): 5.38 µM
TGI (HOP-92 NSCLC): 51.3 µM
GI50 (SF-268 CNS): 16.2 µM
TGI (SF-268 CNS): > 100 µM
GI50 (UACC-62 melanoma): 10.7 µM
TGI (UACC-62 melanoma): 30.6 µM
GI50 (NCI-H226 lung): 10.7 µM
TGI (NCI-H226 lung): 87.2 µM
GI50 (PC-3 prostate): 14.8 µM
TGI (PC-3 prostate): > 100 µM
GI50 (OVCAR-8 ovarian): 39.3 µM
TGI (OVCAR-8 ovarian): > 100 µM
GI50 (HT29 colon): 13.2 µM
TGI (HT29 colon): > 100 µM
GI50 (OVCAR-5 ovarian): 45.1 µM
TGI (OVCAR-5 ovarian): > 100 µM
GI50 (KM12 colon): 27.1 µM
TGI (KM12 colon): > 100 µM
GI50 (T-47D breast): 7.51 µM
TGI (T-47D breast): 85.5 µM
GI50 (UACC-257 melanoma): 32.3 µM
TGI (UACC-257 melanoma): > 100 µM
GI50 (SN12C renal): 16.2 µM
TGI (SN12C renal): > 100 µM
GI50 (UO-31 renal): 4.28 µM
TGI (UO-31 renal): > 100 µM
GI50 (HS 578T breast): 17.8 µM
TGI (HS 578T breast): > 100 µM
GI50 (A498 renal): 3.36 µM
TGI (A498 renal): 33.7 µM
GI50 (IGROV1 ovarian): 23.7 µM
TGI (IGROV1 ovarian): > 100 µM
GI50 (CAKI-1 renal): 12.5 µM
TGI (CAKI-1 renal): > 100 µM
GI50 (MOLT-4 leukemia): 6.43 µM
TGI (MOLT-4 leukemia): > 100 µM
GI50 (SF-539 CNS): 12.5 µM
TGI (SF-539 CNS): 29.9 µM
GI50 (LOX IMVI melanoma): 14.9 µM
TGI (LOX IMVI melanoma): 48.9 µM
GI50 (CCRF-CEM leukemia): 21.9 µM
TGI (CCRF-CEM leukemia): > 100 µM
GI50 (BT-549 breast): 2.86 µM
TGI (BT-549 breast): 15.8 µM
GI50 (RXF 393 renal): 5.35 µM
TGI (RXF 393 renal): 36.7 µM
GI50 (NCI-H23 lung): 22 µM
TGI (NCI-H23 lung): > 100 µM
GI50 (SK-OV-3 ovarian): 26.9 µM
TGI (SK-OV-3 ovarian): > 100 µM
GI50 (SF-295 CNS): 16 µM
TGI (SF-295 CNS): > 100 µM
GI50 (M14 melanoma): 11.8 µM
TGI (M14 melanoma): 40.2 µM
GI50 (COLO 205 colon): 13.8 µM
TGI (COLO 205 colon): 29.5 µM
GI50 (SK-MEL-28 melanoma): 18.3 µM
TGI (SK-MEL-28 melanoma): 80.2 µM
GI50 (HCT-116 colon): 12.7 µM
TGI (HCT-116 colon): 57.2 µM
GI50 (HOP-62 NSCLC): 43 µM
TGI (HOP-62 NSCLC): > 100 µM
GI50 (SNB-19 CNS): 26.5 µM
TGI (SNB-19 CNS): > 100 µM
GI50 (HL-60(TB) leukemia): 12 µM
TGI (HL-60(TB) leukemia): 64.5 µM
GI50 (786-0 renal): 17.5 µM
TGI (786-0 renal): > 100 µM
GI50 (NCI-H460 lung): 13.8 µM
TGI (NCI-H460 lung): > 100 µM
GI50 (SK-MEL-2 melanoma): 11.9 µM
TGI (SK-MEL-2 melanoma): 31.7 µM
GI50 (K-562 leukemia): 13.9 µM
TGI (K-562 leukemia): > 100 µM
GI50 (TK-10 renal): 31.8 µM
TGI (TK-10 renal): > 100 µM
GI50 (OVCAR-4 ovarian): 6.05 µM
TGI (OVCAR-4 ovarian): > 100 µM
GI50 (U251 CNS): 26.5 µM
TGI (U251 CNS): > 100 µM
GI50 (SR leukemia): 10.6 µM
TGI (SR leukemia): > 100 µM
GI50 (SK-MEL-5 melanoma): 7.06 µM
TGI (SK-MEL-5 melanoma): 20.9 µM
GI50 (MDA-MB-435): 15.3 µM
TGI (MDA-MB-435): 65.8 µM
GI50 (SNB-75 CNS): 12 µM
TGI (SNB-75 CNS): > 100 µM
GI50 (A549 NSCLC): 30.5 µM
TGI (A549 NSCLC): > 100 µM
GI50 (DU-145 prostate): 24.4 µM
TGI (DU-145 prostate): > 100 µM
GI50 (NCI-H522 lung): 30.9 µM
TGI (NCI-H522 lung): > 100 µM
